# Measurements from patent US8183252B2, “Heterocyclic aspartyl protease inhibitors” (Schering Corporation, priority 2007, dated 2012).
# pKi: −log10 of the molar value.
# Molecular target: T1, human BACE1 (sproBACE1) (Homo sapiens, UniProt P56817)
# T1 construct: sBACE1, corresponding to amino acids 1-454; made in house; host or cells: Sf9 insect cells (baculovirus), secreted into the medium
# Test: BACE-1 Peptide Hydrolysis Assay (HTRF)
# Format: biochemical
# Settings: read-out: BACE-1 Ki
# Description: A HindIII/PmeI fragment from pCDNA4-sBACE1myc/His was blunt ended using Klenow and subcloned into the Stu I site of PFASTBACI(A) (Invitrogen). A sBACE1mycHis recombinant bacmid was generated by transposition in DH10Bac cells (GIBCO/BRL). Subsequently, the sBACE1mycHis bacmid construct was transfected into sf9 cells using CellFectin (Invitrogen, San Diego, Calif.) in order to generate recombinant baculovirus. […] Five milliliters of high titer plaque purified sBACEmyc/His virus was used to infect 1 L of logarithmically growing sf9 cells for 72 hours. Intact cells were pelleted by centrifugation at 3000×g for 15 minutes. The supernatant, containing secreted sBACE1, was collected and diluted 50% v/v with 100 mM HEPES, pH 8.0. The diluted medium was loaded onto a Q-sepharose column. The Q-sepharose column was washed with Buffer A (20 mM HEPES, pH 8.0, 50 mM NaCl).
# Proteins, were eluted from the Q-sepharose column with Buffer B (20 mM HEPES, pH 8.0, 500 mM NaCl). The protein peaks from the Q-sepharose column were pooled and loaded onto a Ni-NTA agarose column. The Ni-NTA column was then washed with Buffer C (20 mM HEPES, pH 8.0, 500 mM NaCl). Bound proteins were then eluted with Buffer D (Buffer C+250 mM imidazole).
# Reactions were initiated by addition of substrate in a 5 μl aliquot resulting in a total volume of 25 μl. After 3 hr at 30° C. reactions were terminated by addition of an equal volume of 2× stop buffer containing 50 mM Tris-HCl pH 8.0, 0.5 M KF, 0.001% Brij-35, 20 μg/ml SA-XL665 (cross-linked allophycocyanin protein coupled to streptavidin; CIS-Bio International, France) (0.5 μg/well). Plates were shaken briefly and spun at 1200×g for 10 seconds to pellet all liquid to the bottom of the plate before the incubation.
# Y=Bottom+(Top-Bottom)/(1+10^((LogEC50−X)*Hill Slope)); X is the logarithm of concentration of I, Y is the percent change in ratio and Y starts at bottom and goes to top with a sigmoid shape.
# T1 sequence (P56817 22-454): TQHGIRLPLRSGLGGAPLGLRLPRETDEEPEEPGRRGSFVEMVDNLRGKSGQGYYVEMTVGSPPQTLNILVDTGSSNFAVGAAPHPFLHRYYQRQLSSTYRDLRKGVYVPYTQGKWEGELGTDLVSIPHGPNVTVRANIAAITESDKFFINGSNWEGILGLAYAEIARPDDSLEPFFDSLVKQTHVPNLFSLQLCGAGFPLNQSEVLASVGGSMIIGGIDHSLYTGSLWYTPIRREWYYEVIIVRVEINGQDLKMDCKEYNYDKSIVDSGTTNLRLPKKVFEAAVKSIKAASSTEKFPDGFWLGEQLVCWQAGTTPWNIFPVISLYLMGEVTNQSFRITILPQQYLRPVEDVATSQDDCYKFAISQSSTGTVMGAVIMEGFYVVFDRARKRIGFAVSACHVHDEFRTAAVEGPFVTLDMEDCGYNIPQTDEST
row,SMILES,pKi
1,CN1C(=N)N[C@](C)(c2csc(-c3ccc(F)c(C#N)c3)c2)CC1=O,> 5.30
2,CN1C(=N)N[C@](C)(c2cc(-c3ccc(F)c(C#N)c3)nn2C)CC1=O,> 5.30
3,CN1C(=N)N[C@@]2(CCCc3sc(-c4ccc(F)c(C#N)c4)cc32)CC1=O,> 5.30
4,CN1C(=N)N[C@](C)(c2cc(-c3cc(Cl)cc(C#N)c3)cs2)CC1=O,> 5.30
5,C[C@H]1C(=O)N(C)C(=N)N[C@]1(C)c1cc(-c2cc(Cl)cc(C#N)c2)cs1,> 5.30
6,CN1C(=N)N[C@](C)(c2ncc(-c3cc(F)cc(C#N)c3)s2)CC1=O,> 5.30
7,CN1C(=N)NC(c2csc(-c3cccc(C#N)c3)c2)(C2CC2)C1=O (stereo not drawn),> 5.30
8,Cc1cc([C@]2(C)CC(=O)N(C)C(=N)N2)sc1-c1cccc(C#N)c1,> 5.30
9,CN1C(=N)N[C@](C)(c2scc(C#N)c2F)CC1=O,> 5.30
10,Cc1csc(-c2csc(C3(C4CC4)NC(=N)N(C)C3=O)c2)c1 (stereo not drawn),> 5.30
11,COc1ccc(F)c(-c2cccc(C3(C)CON(C)C(=N)N3)c2)c1 (stereo not drawn),> 5.30
12,CN1C(=N)N[C@](C)(c2cc(-c3ccc(F)c(C#N)c3)cs2)[C@@H](C2CC2)C1=O,> 5.30
13,CN1C(=N)N[C@](C)(c2cc(-c3ccc(F)c(C#N)c3)c(F)s2)[C@@H](C2CC2)C1=O,> 5.30
14,Cc1ccc(-c2csc([C@]3(C)CC(=O)N(C)C(=N)N3)c2)cc1C#N,> 5.30
15,CN1C(=N)N[C@](C)(c2cc(-c3cc(C#N)cc(C#N)c3)nn2C)CC1=O,> 5.30
16,C[C@H]1C(=O)N(C)C(=N)N[C@]1(C)c1cc(-c2cc(C#N)cc(C#N)c2)cs1,> 5.30
17,CN1C(=N)N[C@](C)(c2cnc[nH]2)[C@@H](c2cccc(C(C)(F)F)c2)C1=O,> 5.30
18,CN1C(=N)N[C@](C)(c2ccc(C#N)s2)[C@@H](c2ccc(C(C)(F)F)cc2)C1=O,> 5.30
19,CN1C(=N)N[C@](CCC2CCCCC2)(C[C@H]2CCC[C@@H](NCCc3ccccc3)C2)C1=O,> 5.30
20,CN1C(=N)N[C@](CCC2CCCCC2)(C[C@H]2CCC[C@@H](N(C)C)C2)C1=O,> 5.30
21,CN1C(=N)N[C@@](CCC2CCCCC2)(C[C@H]2CCC[C@@H](Nc3cnc4cc(Cl)ccc4n3)C2)C1=O,> 5.30

row,SMILES,pKi
1,Cc1nn(C)c2sc([C@]3(C)CC(=O)N(C)C(=N)N3)cc12,> 5.30
2,CN1C(=N)N[C@](C)(c2ccc(F)cc2F)CC1=O,> 5.30
3,CN1C(=N)N[C@](C)(c2ccnc(-c3cccnc3F)c2)CC1=O,> 5.30
4,CN1C(=N)N[C@](C)(c2ccc3scc(CCC4CC4)c3c2)CC1=O,> 5.30
5,CN1C(=N)N[C@](C)(c2cc(-c3cccc(Br)c3)nn2C)C(C)(C)C1=O,> 5.30
6,CN1C(=N)N[C@](C)(c2cc(-c3cccc(Br)c3)ns2)CC1=O,> 5.30
7,CN1C(=N)N[C@](C)(c2cc(Br)co2)CC1=O,> 5.30
8,CN1C(=N)N[C@](C)(c2cc(Br)c(-c3cncc(Br)c3)s2)CC1=O,> 5.30
9,Cc1cc(F)ccc1[C@]1(C)CC(=O)N(C)C(=N)N1,> 5.30
10,CN1C(=N)N[C@](C)(c2cc(-c3cccc(Cl)c3)ccn2)CC1=O,> 5.30
11,CCOc1cc(F)cc(-c2csc([C@]3(C)CC(=O)N(C)C(=N)N3)c2)c1,> 5.30
12,CN1C(=N)N[C@](C)(c2cc(-c3cccc(F)c3)c3sccc3c2)CC1=O,> 5.30
13,CN1C(=N)N[C@](C)(c2cc(-c3ccc(F)nc3)c3sccc3c2)CC1=O,> 5.30
14,CN1C(=N)N[C@](CCC2CCCCC2)(C[C@H]2CCC[C@@H](NS(=O)(=O)c3ccccc3)C2)C1=O,> 5.30
15,CN1C(=N)N[C@](CCC2CCCCC2)(C[C@H]2CCC[C@@H](NC(=O)c3ccnnc3)C2)C1=O,> 5.30
16,CCCn1ncc2ccc([C@]3(C)CC(=O)N(C)C(=N)N3)cc21,> 5.30
17,Cc1c(-c2cccc(OC(F)(F)F)c2)csc1[C@]1(C)CC(=O)N(C)C(=N)N1,> 5.30
18,Cc1cc([C@]2(C)CC(=O)N(C)C(=N)N2)sc1-c1cccc(OC(F)(F)F)c1,> 5.30
19,CN1C(=N)N[C@](C)(c2nc(-c3cccnc3)cs2)CC1=O,> 5.30
20,CN1C(=N)N[C@](C)(c2cc(-c3cccc(OC(F)(F)F)c3)ccn2)CC1=O,> 5.30
21,CN1C(=N)N[C@](C)(c2cc(-c3cncnc3)cs2)CC1=O,> 5.30

# More lines, now with the values ahead:
row,pKi,SMILES
1,> 5.30,COCC1CCCN1C(=O)c1cncc(CN2C(=N)NC(c3cccc(Br)c3)(C3CC3)C2=O)c1 (stereo not drawn)
2,> 5.30,CN1C(=N)NC(c2ccccc2)(c2cc(-c3cccnc3)cs2)C1=O (stereo not drawn)
3,> 5.30,CN1C(=N)NC(c2ccccc2)(c2cc(-c3cncnc3)cs2)C1=O (stereo not drawn)
4,> 5.30,CN1C(=N)N[C@](CCc2ccccc2)(C[C@H]2CCC[C@H](Nc3cccnc3)C2)C1=O
5,> 5.30,Cn1nccc1CN1C(=N)NC(c2ccccc2)(c2ccccc2)C1=O
6,> 5.30,CCCN(CCC)C(=O)CCCCN1C(=N)NC(c2ccccc2)(c2ccccc2)C1=O
7,> 5.30,N=C1NC(c2ccccc2)(c2cccc(-c3cccnc3)c2)C(=O)N1CC1CCNCC1 (stereo not drawn)
8,> 5.30,N=C1NC(c2ccccc2)(c2ccccc2)C(=O)N1Cc1cccnc1
9,> 5.30,N=C1NC(c2ccccc2)(c2ccccc2)C(=O)N1CC1CCN(c2ccc3ccccc3n2)CC1
10,> 5.30,N=C1NC(c2ccccc2)(c2ccccc2)C(=O)N1Cc1ccoc1
11,> 5.30,CN1C(=N)NC(C)(c2cc(-c3cccc(C#N)c3)cs2)C(CC=Cc2ccc(F)cc2)C1=O (stereo not drawn)
12,> 5.30,CN1C(=N)N[C@](C)(c2cc(-c3cccc(C#N)c3)cs2)[C@@H](c2csc3ccccc23)C1=O
13,> 5.30,Cc1ccc(N2CCC([C@H]3C(=O)N(C)C(=N)N[C@]3(C)c3cc(-c4cccc(C#N)c4)cs3)CC2)cc1
14,> 5.30,CC(C)Oc1cccc([C@H]2C(=O)N(C)C(=N)N[C@]2(C)c2cc(-c3cccc(C#N)c3)cs2)c1
15,> 5.30,CN1C(=N)N[C@](C)(c2cc(-c3cccc(C#N)c3)c(C3=CCN(c4ccccc4)CC3)s2)CC1=O
16,> 5.30,CN1C(=N)NC(C)(c2cc(-c3cccc(C#N)c3)cs2)C(CCCc2ccccc2)C1=O (stereo not drawn)
17,> 5.30,CN1C(=N)NC(C)(c2cc(-c3cccc(C#N)c3)cs2)C(CCCc2ccncc2)C1=O (stereo not drawn)
18,> 5.30,CC1(c2cccc(-c3cccc(Cl)c3)c2)NC(=N)N(CC2CCN(C(=O)Cc3ccccc3)C2)C1=O (stereo not drawn)
19,> 5.30,CC1(c2cccc(-c3cccc(Cl)c3)c2)NC(=N)N(CC2CCN(S(=O)(=O)c3ccccc3)C2)C1=O (stereo not drawn)
20,> 5.30,CC(=O)N1CCC(CN2C(=N)NC(C)(c3cccc(-c4cccc(C(=O)NCc5ccco5)c4)c3)C2=O)CC1 (stereo not drawn)
21,> 5.30,CN1C(=N)N[C@@](c2cccc(-c3ccc(F)c(C#N)c3)c2)(C2CC2)C1=O

row,pKi,SMILES
1,> 5.30,N=C1NC(c2ccccc2)(c2ccccc2)C(=O)N1Cc1cccc(C(=O)N2CCOCC2)c1
2,> 5.30,CN(C)C(=O)N1CCC([C@H]2C(=O)N(C)C(=N)N[C@]2(C)c2cc(-c3cccc(C#N)c3)cs2)CC1
3,> 5.30,CN1C(=N)NC(C)(c2cccc(-c3cncc(F)c3)c2)C1=O (stereo not drawn)
4,> 5.30,CCn1nccc1Nc1cccc(C2(c3ccccc3)NC(=N)N(C)C2=O)c1 (stereo not drawn)
5,> 5.30,CN1CCC(CN2C(=N)NC(C)(c3cccc(-c4cccc(Cl)c4)c3)C2=O)C1 (stereo not drawn)
6,> 5.30,CCCN(CCC)C(=O)c1ncc(CN2C(=N)NC(c3ccccc3)(c3ccccc3)C2=O)[nH]1
7,> 5.30,CSc1cccc(-c2cccc([C@@]3(C4CC4)NC(=N)N(C)C3=O)c2)c1
8,> 5.30,CN1C(=N)N[C@@](c2cccc(-c3cc(Br)ccn3)c2)(C2CC2)C1=O
9,> 5.30,CN1C(=N)N[C@](CCc2ccccc2)(C[C@H]2CCC[C@@H](NC3CCCCC3)C2)C1=O
10,> 5.30,CN1C(=N)N[C@](CCc2ccccc2)(C[C@H]2CCC[C@@H](NC3CCCC3)C2)C1=O
11,> 5.30,CN1C(=N)N[C@@](C[C@H]2CCC[C@@H](Nc3ccc4ccccc4n3)C2)(C2CC2)C1=O
12,> 5.30,CN1C(=N)N[C@](C)(c2cccc(-c3ccc4scnc4c3)c2)CC1=O
13,> 5.30,N=C1NC(c2ccccc2)(c2ccccc2)C(=O)N1Cc1cccc(NC(=O)C2CCCC2)c1
14,> 5.30,CN1C(=N)NC(C)(c2cccc(-c3cc(Cl)ccc3CNC(=O)c3ccncc3)c2)C1=O (stereo not drawn)
15,> 5.30,CC(=O)N1CCC[C@H](CN2C(=N)NC(c3ccccc3)(c3ccccc3)C2=O)C1
16,> 5.30,N=C1NC(c2ccccc2)(c2ccccc2)C(=O)N1CC1CCN(C(=O)CCN)CC1
17,> 5.30,N=C1NC(c2ccccc2)(c2ccccc2)C(=O)N1CC1CCN(C(=O)CN)CC1
18,> 5.30,CCCC(=O)N1CCC[C@H](CN2C(=N)NC(c3ccccc3)(c3ccccc3)C2=O)C1
19,> 5.30,N=C1NC(c2ccccc2)(c2ccccc2)C(=O)N1CC1CCN(C(=O)C2(c3ccccc3)CC2)CC1
20,> 5.30,CN1C(=N)N[C@](C)(c2csc3c(-c4ccccc4)cccc23)CC1=O
21,> 5.30,CN1C(=N)N[C@](C)(c2cc(-c3ccncc3)c3sccc3c2)CC1=O
